The series is described as follows: in vitro. Conditions: human, liver microsomes. A general note: Microsomes from liver hold many membrane-bound enzymes, among them those of drug oxidation.

This is an account of results in ChEMBL document CHEMBL4049397, “Design, synthesis and evaluation of derivatives based on pyrimidine scaffold as potent Pan-Raf inhibitors to overcome resistance” (Eur J Med Chem, 2017).

In general, half-life refers to the time needed for the level to fall by half in the phase considered. Consider `CNC(=O)c1cc(Oc2ccc(NC(=O)Nc3ccc(Cl)c(C(F)(F)F)c3)cc2)ccn1` [SORAFENIB], for which the half-life at 0.5 µM is 5.6 h.
